Assay results published in patent US6365585B1, “Phosphodiesterase IV-inhibiting diazepinoindoles” (Warner-Lambert Company, priority 1998, dated 2002).

Key:
[1] = Metabolism in vitro of MPTDI, human hepatic microsomes (HPLC-MS profile); format: in vitro ADME; settings: incubation of MPTDI with human hepatic microsomes
Protocol: (§1) The profile and the identification of the metabolites of MPTDI were obtained after incubation of the product with human hepatic microsomes. The results were compared with those obtained on rat hepatic microsomes. The metabolic profiles obtained by HPLC coupled to a mass spectrometer in these two species are represented in FIG. 1. In some cases, the mass spectra obtained were compared with those of reference substances synthesized by the chemical route. It is deduced therefrom that the profiles obtained on human and rat microsomes are similar: Table 1 collates the measured proportions of the metabolites for these two species.

[2] = Metabolism in vitro of MPTDI, rat hepatic microsomes (HPLC-MS profile); format: in vitro ADME; settings: incubation of MPTDI with rat hepatic microsomes
Protocol: as §1

Structure (SMILES) | Proportions (%) of the metabolites obtained on human hepatic microsomes [1] | Proportions (%) of the metabolites obtained on rat hepatic microsomes [2] | melting point
Cc1cc2c3c(c1)C(c1ccccc1)=N[C@@H](NC(=O)c1ccncc1)C(=O)N3CC2 [MPTDI, (3R)-N-(9-methyl-4-oxo-1-phenyl-3,4,6,7-tetrahydro[1,4]diazepino[6,7,1-hi]indol-3-yl)isonicotinamide, reference compound] | 79% | 38.2% | 
O=C(NC1N=C(c2ccccc2)c2cc(CO)cc3c2N(CC3)C1=O)c1ccncc1 (centres unmarked) [OH on 9-CH3, N-(9-hydroxymethyl-4-oxo-1-phenyl-3,4,6,7-tetrahydro[1,4]diazepino[6,7,1-hi]indol-3-yl)isonicotinamide] | 4.2% | 24.3% | 260 °C
